Results from US9006394B2, “Peptide-presenting surfaces for long-term culture of pluripotent cells” (Wisconsin Alumni Research Foundation, priority 2008, dated 2015).
Ends that are not written are not given here.

Tests used:
[1] = Kyte & Doolittle; cited from earlier work
[2] = system: undifferentiated hESCs (Oct-4 positive) and differentiated cells derived from embryoid bodies (Oct-4 negative); assay: Effect of ROCK inhibitor on cellular adhesion; format: cell-based, human
Experimental: Effect of ROCK inhibitor on cellular adhesion: A mixture of undifferentiated hESCs (Oct-4 positive) and differentiated cells derived from embryoid bodies (Oct-4 negative) was seeded onto self-assembled monolayer surfaces presenting the GBP […] (SEQ ID NO: 1) and the integrin binding peptide KGRGDS (SEQ ID NO: 5). For some experiments, cells were seeded onto polyacrylamide gels or glass coverslips presenting the […] (SEQ ID NO: 47) peptide. The cells were grown for 24 hours in mTeSR medium containing 5 μM ROCK inhibitor Y-27632 and then switched to mTeSR medium without ROCK inhibitor for an additional 24 hours. The cells were fixed and stained for Oct-4 and counterstained with phalloidin and DAPI. In some instances, cells were added to the surfaces without ROCK inhibitor.

[3] = system: hESCs; assay: Culture on other chemically defined surfaces (streptavidin plates, polyacrylamide gels, glass coverslips); format: cell-based, human
Excerpt: Moreover, some hESCs were passaged to streptavidin-coated plates treated with biotinylated vitronectin GBP (SEQ ID NO:1) or polyacrylamide gels cross-linked to vitronectin GBP (SEQ ID NO:1).

[4] = system: hESCs; assay: Flow cytometry of pluripotent cell-specific markers after three passages on SAMs; format: cell-based, human; conditions: for pluripotent cell-specific marker expression (Oct-4, SSEA-3, SSEA-4) after 3 passages: 3 passages on SAMs
Experimental: The density of the peptides on the surface varied from 0.5% to 25% (see, FIG. 1).
Regardless of the nature of the chemically defined surface or peptide(s) attached thereto, about 5×10^4 cells/ml were manually passaged to a fresh chemically defined surface every 5-7 days (i.e., at confluency) after treatment with an Enzyme-Free Cell Dissociation Buffer (Sigma; St. Louis, Mo.; a phosphate-buffered saline (PBS)+ethylenediamine tetraacetic acid (EDTA) 0.02% wt/vol) for 10-15 minutes. After three passages (about 21 days), the cells were evaluated for pluripotent cell-specific markers by flow cytometry.
hESCs were dissociated with 0.05% trypsin-EDTA with 2% chicken serum (Gibco). Cell surface marker staining was performed in PBS containing 2% BSA (wt/vol) at 4° C. for 30 minutes with directly conjugated antibodies against alkaline phosphatase (R&D Systems), Tra 1-60 (BD Biosciences), Tra 1-81 (BD Biosciences), SSEA-4 (BD Biosciences), SSEA-3 (BD Biosciences), SSEA-1 (R&D Systems) followed by a 30 minute fixation with 2% formaldehyde/PBS at room temperature.
For intracellular marker staining, hESCs were fixed with 2% formaldehyde/PBS at room temperature for 30 minutes. For Oct-4 staining, cells were permeabilized with saponin permeabilization buffer (SPB; 0.1% saponin, 0.1% BSA wt/vol in PBS) for 30 minutes at room temperature followed by incubation with an Oct-4 PE-conjugated antibody overnight. Cells were then washed 2 times with SPB before analysis.
Flow cytometry data was obtained using a FACSCalibur™ (BD Biosciences) and analyzed using FlowJo Software (Tree Star, Inc.; Ashland, Oreg.). The percentage of positive cells was established by comparing experimental cells to partially differentiated hESCs. Gating for positive and negative populations was established by analyzing the bimodal peaks of partially differentiated hESCs.

[5] = system: hES cells (H9 and H13) and vector-free iPS cells (DF19-9); assay: Cell growth over two passages (Cell Counting Kit-8); format: cell-based, human
Experimental: hESCs (H9) were cultured on Matrigel, vitronectin, polylysine, […] (SEQ ID NO: 1), or KGRGDS (SEQ ID NO: 5) over two passages in mTeSR media supplemented with 5 μm ROCK inhibitor. Cell counts were calculated at each time point using Cell Counting Kit-8 (Dojindo Molecular Technologies, Inc., Rockville, Md.).

[6] = system: pluripotent stem cells; assay: Number of cell divisions by fluorescent cell staining; format: cell-based, human
[7] = system: human ESCs (H9); assay: Cell adhesion (CellTiter-Glo) with soluble heparin or chondroitinase ABC; format: cell-based; conditions: 1 hour; for hESC binding in the presence of soluble heparin: soluble heparin 0.5 mg/mL
Experimental: To determine the effect of a soluble GAG on hESC binding to GBPs, hESCs were plated onto Matrigel-coated surfaces, vitronectin-coated surfaces, or surfaces presenting the heparin-binding peptide […] (SEQ ID NO: 1) in the presence or absence of soluble heparin (0.5 mg/mL). After 1 hour, the surfaces were washed and the cells lysed. The cell lysates were used to determine approximate cell numbers using Cell Titer Glo (Promega). The ratio of the mean luminescence of the cell lysates of cells plated in the presence of heparin versus those without heparin was expressed as percent cell binding for each surface.
To determine if glycosaminoglycans (GAGs) are required for GBP binding, human ESCs (H9) cultured on Matrigel were dissociated using an enzyme-free, Hanks'-based cell dissociation buffer (Sigma) for 10-15 minutes. Cells were resuspended in DMEM/F12 (Gibco), or DMEM/F12 supplemented with 2 units/mL chondroitinase ABC (Sigma), or 500 ug/mL heparin (Sigma). Cells treated with the GAG-degrading enzymes were incubated for 1 hour in suspension at 37° C. Cell suspensions were seeded onto Matrigel-coated surfaces, recombinant vitronectin-coated surfaces (10 μg/mL, R&D Systems), or SAMs presenting the peptide […] (SEQ ID NO: 1) at a 5% surface density. After 1 hour, surfaces were washed 3 times with PBS and the cells were lysed with M-PER buffer (Thermo Fisher Scientific, Inc., Rockford, Ill.). The cell lysate was mixed with CellTiter-Glo (Promega) to determine the number of viable cells in culture based on the presence of ATP. The luminescence was measured on 20/20^n luminometer (Turner Biosystems, Inc., Sunnyvale Calif.). • Cell Growth: […]

[8] = system: hESCs; assay: Initial cell survival on SAMs with heregulin supplement; format: cell-based, human; conditions: 10 ng/ml in mTeSR1
Experimental: hESCs were passaged to SAMs of peptide-AT conjugates on gold in mTeSR™1 optionally supplemented with 10 ng/ml heregulin-β1 (Peprotech; Rocky Hill, N.J.) and 5 μM Y-27632 (Calbiochem; San Diego, Calif.). […] Some surfaces presented peptide-AT conjugates of only vitronectin GBP (SEQ ID NO:1), fibronectin GBP (SEQ ID NO:2) or bone sialoprotein GBP (SEQ ID NO:3) Alternatively, some surfaces presented peptide-AT conjugates of only the integrin-binding peptide (SEQ ID NO:5), another bioactive peptide derived from fibronectin (SEQ ID NO:6), the FGF receptor binding peptide (SEQ ID NO:4), the laminin-derived bioactive peptide (SEQ ID NO:7), […] (SEQ ID NO: 8) or […] (SEQ ID NO: 9). Furthermore, some surfaces presented separate peptide-AT conjugates of the integrin-binding peptide (SEQ ID NO:5) and FGF receptor binding peptide (SEQ ID NO:4); the integrin-binding peptide (SEQ ID NO:5) and vitronectin GBP (SEQ ID NO:1); the integrin-binding peptide (SEQ ID NO:5) and bioactive peptide derived from fibronectin (SEQ ID NO:6); and the vitronectin GBP (SEQ ID NO:1) and […] (SEQ ID NO: 9). The density of the peptides on the surface varied from 0.5% to 25% (see, FIG. 1).

[9] = 24 hours with 5 μM, then 24 hours without

C[C@H](N)C(=O)O [A, alanine]
Hydropathy index [1]: 1.8

N[C@@H](CS)C(=O)O [C]
Hydropathy index [1]: 2.5

N[C@@H](CC(=O)O)C(=O)O [D]
Hydropathy index [1]: −3.5

N[C@@H](CCC(=O)O)C(=O)O [E]
Hydropathy index [1]: −3.5

N[C@@H](Cc1ccccc1)C(=O)O [F, phenalalanine]
Hydropathy index [1]: 2.8

N[C@@H](Cc1c[nH]cn1)C(=O)O [H, histidine]
Hydropathy index [1]: −3.2

CC[C@H](C)[C@H](N)C(=O)O [I, isoleucine]
Hydropathy index [1]: 4.5

NCCCC[C@H](N)C(=O)O [K, lysine]
Hydropathy index [1]: −3.9

CSCC[C@H](N)C(=O)O [M, methionine]
Hydropathy index [1]: 1.9

NC(=O)C[C@H](N)C(=O)O [N]
Hydropathy index [1]: −3.5

N=C(N)NCCC[C@H](N)C(=O)O [R, arginine]
Hydropathy index [1]: −4.5

C[C@@H](N)[C@H]1CC[C@H](C(=O)Nc2ccncc2)CC1.Cl.Cl [ROCK inhibitor, (+)-(R)-trans-4-(1-aminoethyl)-N-(4-pyridyl)cyclohexanecarboxamide dihydrochloride]
attachment of differentiated cells after removal of ROCK inhibitor [2, 9]: remained attached and viable
attachment of undifferentiated cells after removal of the ROCK inhibitor [2, 9]: significant detachment
Oct-4 positive undifferentiated cells among adherent cells when seeded without the ROCK inhibitor ([2]; cells added to the surfaces without ROCK inhibitor): few of these cells were Oct-4 positive

N[C@@H](CO)C(=O)O [S]
Hydropathy index [1]: −0.8

C[C@@H](O)[C@H](N)C(=O)O [T]
Hydropathy index [1]: −0.7

CC(C)[C@H](N)C(=O)O [V, valine]
Hydropathy index [1]: 4.2

N[C@@H](Cc1c[nH]c2ccccc12)C(=O)O [W]
Hydropathy index [1]: −0.9

N[C@@H](Cc1ccc(O)cc1)C(=O)O [Y]
Hydropathy index [1]: −1.3

CGKKQRFRHRNRKG (not fully specified (C-terminus); also: conjugated to polyacrylamide or glass; listed as Homo sapiens) [peptide conjugated to polyacrylamide gels or glass coverslips]
cell adhesion and growth on non-SAM substrate ([3]; compared with SAMs): supported cell adhesion and growth comparable to SAMs

KGRGDS (not fully specified (C-terminus); listed as Homo sapiens)
support of self-renewal ([4]; 3 passages): insufficient to support self-renewal
pluripotent cell-specific marker expression (Oct-4, SSEA-3, SSEA-4) after 3 passages [4]: significantly lower levels of pluripotent cell-specific markers
pluripotent cell-specific marker expression (Oct-4, SSEA-3, SSEA-4) after 3 passages ([4]; listed as RGD-presenting surfaces): fewer cells in the population displayed markers of pluripotency
cell growth rate on surface ([4]; compared with GAG-binding peptide surfaces): much more slowly
plating efficiency after 24 hours [5]: lowest plating efficiency
number of cell divisions [6]: fewer cell divisions

biotinylated SEQ ID NO:1: streptavidin-coated plates treated with biotinylated vitronectin GBP (SEQ ID NO:1) (GKKQRFRHRNRKG; not fully specified (C-terminus); also: biotinylated, site not given here; listed as Homo sapiens)
cell adhesion and growth on non-SAM substrate ([3]; compared with SAMs): supported cell adhesion and growth, although not to the same extent
cell death when ROCK inhibitor is omitted ([3]; streptavidin-coated plates): without observable increase in cell death
colony spreading ([3]; streptavidin-coated plates, compared with SAMs): lower than on SAMs

heparin [reference compound]
hESC binding in the presence of soluble heparin [7]: inhibited adhesion

heregulin
initial cell survival [8]: modest improvement

vitronectin: recombinant vitronectin-coated surfaces (10 μg/mL, R&D Systems)
adhesion of cells treated with chondroitinase ABC ([7]; 2 units/mL chondroitinase ABC, 5% surface density): maintained their ability to adhere
hESC binding in the presence of soluble heparin [7]: not
plating efficiency after 24 hours [5]: equivalent
cell numbers after each passage ([5]; two passages, mTeSR with ROCK inhibitor): Increased cell numbers
number of cell divisions [6]: fewer cell divisions
